Results taken from PubChem BioAssay (NCI).
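The compound was tested at five concentrations on cells cultured in 96-well plates, with a 48-hour exposure period. GI50: concentration for 50% inhibition of growth. TGI is the concentration that stops growth completely.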

Experiments:
Experiment in all cases: growth of human tumour cells (NCI), 48 h
DU-145 prostate = test system: DU-145 prostate
HCT-15 colon = test system: HCT-15 colon
NCI-H460 lung = test system: NCI-H460 lung
SF-539 CNS = test system: SF-539 CNS
SK-MEL-2 melanoma = test system: SK-MEL-2 melanoma
SN12C renal = test system: SN12C renal
SNB-75 CNS = test system: SNB-75 CNS
SR leukemia = test system: SR leukemia

| Compound | TGI (DU-145 prostate) | TGI (HCT-15 colon) | TGI (NCI-H460 lung) | TGI (SF-539 CNS) | TGI (SK-MEL-2 melanoma) | TGI (SN12C renal) | TGI (SNB-75 CNS) | TGI (SR leukemia) | GI50 (DU-145 prostate) | GI50 (HCT-15 colon) | GI50 (NCI-H460 lung) | GI50 (SF-539 CNS) | GI50 (SK-MEL-2 melanoma) | GI50 (SN12C renal) | GI50 (SNB-75 CNS) | GI50 (SR leukemia) |
| --- | --- | --- | --- | --- | --- | --- | --- | --- | --- | --- | --- | --- | --- | --- | --- | --- |
| CC1CCc2c(c(CC3CC(=O)NC(=O)C3)nn2-c2ccccc2)C1 (stereo not drawn) | > 100 µM | > 100 µM | > 100 µM | > 100 µM | > 100 µM | > 100 µM | > 100 µM | > 100 µM | – | – | – | – | – | – | – | – |
| O=C(NN1C(=O)CSC12CCCC2)C(O)c1ccccc1 (stereo not drawn) | > 100 µM | > 100 µM | > 100 µM | > 100 µM | > 100 µM | > 100 µM | > 100 µM | – | > 100 µM | > 100 µM | > 100 µM | > 100 µM | > 100 µM | > 100 µM | > 100 µM | – |
| COc1cc(/C=C\c2cc(/C=C\c3ccc(O)c(OC)c3)n(C(=O)CNc3ccc(Cl)cc3)n2)ccc1O | 12.3 µM | 12.2 µM | 12.5 µM | – | 18.8 µM | 20.6 µM | 13 µM | 7.14 µM | 3.25 µM | 2.54 µM | 3.17 µM | – | 3.97 µM | 3.18 µM | 2.84 µM | 0.341 µM |
| CC(=O)O[C@H]1C(=O)[C@@]2(C)[C@H]([C@H](OC(=O)c3ccccc3)[C@@]3(O)C[C@H](O)C(C)=C1C3(C)C)[C@]1(OC(C)=O)CO[C@@H]1C[C@@H]2O | > 100 µM | > 100 µM | > 100 µM | > 100 µM | > 100 µM | > 100 µM | > 100 µM | > 100 µM | – | – | – | – | – | – | – | – |
| CC(C)(C)c1ccc(O)c(CN(Cc2cc(C(C)(C)C)ccc2O)C2CCCCC2)c1 | 45.4 µM | 36.2 µM | 31.5 µM | 31 µM | 35.4 µM | 42.1 µM | 51.3 µM | 31.4 µM | – | – | – | – | – | – | – | – |
| COc1ccc2c(c1)N(CCO)C1=C(C(=O)OC1)C2c1ccccc1 (stereo not drawn) | 6.01 µM | > 50 µM | 12.5 µM | – | 4.74 µM | > 50 µM | > 50 µM | > 50 µM | 1.74 µM | 1.94 µM | 1.77 µM | – | 1.61 µM | 3.7 µM | 1.01 µM | 1.69 µM |
| CC(C)(C)NC/C(=C\c1ccccc1)C(=O)c1ccccc1 | 9.63 µM | 7.16 µM | 4.57 µM | 7.2 µM | 5.02 µM | 6.34 µM | 17.9 µM | 8.68 µM | 2.68 µM | 1.56 µM | 1.88 µM | 3.01 µM | 2.01 µM | 1.95 µM | 4.67 µM | 1.67 µM |
| Nc1nc(N)c(N=Nc2ccc(C(=O)O)c(O)c2)c(N)n1 | > 100 µM | > 100 µM | > 100 µM | > 100 µM | > 100 µM | > 100 µM | > 100 µM | > 100 µM | – | – | – | – | – | – | – | – |
| C=C1NC(=O)C(CC(C(=O)C(=O)Nc2c(C)cccc2C(C)(C)C)C(=O)c2ccc3ccccc3c2)C(=O)N1 (stereo not drawn) | > 100 µM | > 100 µM | > 100 µM | > 100 µM | > 100 µM | > 100 µM | > 100 µM | > 100 µM | – | – | – | – | – | – | – | – |
| COc1cc(-c2ccc(NC(=O)NC3CC3)c(OC)c2)ccc1NC(=O)NC1CC1 | > 100 µM | > 100 µM | 15.7 µM | 99.8 µM | > 100 µM | > 100 µM | > 85.8 µM | – | 6.89 µM | 1.1 µM | 1.51 µM | 4.86 µM | 35.5 µM | 18.8 µM | 12.1 µM | 0.446 µM |
